# Experimental data taken from patent publication US20030105138A1, “Method of treatment for decreasing mortality resulting from congestive heart failure” (Boehringer Mannheim Pharmaceuticals Corporation- SmithKline …, priority 1995, published 2003).
# Columns and labels:
# patients with CHF [1] = assay: US Carvedilol Heart Failure Trials: mortality studies in CHF patients (multicenter, double-blind, placebo-controlled, intention-to-treat); type: in vivo, humans; set-up: All Cause Mortality / Risk Reduction, all-cause mortality / Mortality / Risk Reduction, mortality: concentration or dose not given beside the values; conditions: for Risk Reduction, mortality / Risk Reduction, all-cause mortality: versus placebo
# Text: To determine if β-adrenergic blockade might inhibit the deleterious effects of the sympathetic nervous system on survival in heart failure (CHF), 1052 patients with CHF were prospectively enrolled into a multicenter trial program, in which patients were randomly assigned (double-blind) to 6-12 months' treatment with placebo (PBO) or carvedilol (CRV),. After a common screening period, patients with class II-IV CHF (see next paragraph for the definitions of the classification of CHF) and an ejection fraction ≦0.35 were assigned to one of four protocols based on performance on a 6-minute walk test. PBO or CRV was added to existing therapy with digoxin, diuretics and an ACE inhibitor. All-cause mortality was monitored by a prospectively constituted Data and Safety Monitoring Board (DSMB). After 25 months of enrollment, the DSMB recommended termination of the program because of a favorable effect of CRV on survival. By intention-to-treat, mortality was 8.2% in the PBO group but only 2.9% in the CRV group (P=0.0001, Cochran-Mantel-Haensel analysis). This represented a reduction in risk of death by CRV of 67% (95% CI: 42% to 81%). The treatment effect was similar in patients with class II and class III-IV symptoms. Mortality was reduced in class II patients from 5.9% to 1.9%, a 68% reduction (95% CI: 20% to 97%) [P=0.015,], and in class III-IV patients from 11.0% to 4.2%, a 67% reduction (95% CI: 30% to 84%), [P=0.004, log-rank]. Importantly, the effect of CRV was similar in ischemic heart disease (risk reduced by 67%, P=0.003) and in non-ischemic dilated cardiomyopathy (risk reduced by 67%, P=0.014). […] The treatment effect is seen across a broad range of severity and etiology of disease.
# Patients on background therapy with diuretics, ACE inhibitors and/or digoxin were stratified on the basis of baseline submaximal exercise performance, into one of four trials: study 220, a dose response study in moderate (NYHA II-IV) CHF with exercise testing as a primary endpoint study 221, a dose titration study in moderate (NYHA II-IV) CHF with exercise testing as a primary endpoint study 239, a dose titration study in severe (NYHA III-IV) CHF with quality of life as a primary endpoint study 240, a dose titration study in mild (NYHA II-III) CHF with progression of CHF as a primary endpoint Sixty-four centers in the U.S. participated in the trial program. All sites conducted protocols 239 and 240, while 33 performed protocol 220 and 31 performed protocol 221.
# Although each trial had its own individual objectives, the overall program objective defined prospectively was evaluation of all-cause mortality. Based upon a projected enrollment of 1100 patients, the program had 90% power to detect a 50% reduction in mortality (two-sided) between carvedilol and placebo, assuming a mortality rate in the placebo group of 12% over the duration of the trials (α=0.05).
# Randomization was preceded by a screening and challenge period common to the four protocols The purpose of the screening period was to qualify patients for study entry, obtain reproducible baseline measurements, and stratify patients into the appropriate trial based on submaximal exercise testing. During the challenge period, patients received low-dose open-label carvedilol (6.25 mg b.i.d.) for two weeks. […] Patients tolerating low-dose carvedilol were then randomized to blinded medication (carvedilol or placebo) with the dose titrated over several weeks in the range of 6.25 to 50 mg b.i.d. (or equivalent level of placebo). The maintenance phase of each study ranged from six to 12 months, after which patients had the option of receiving open-label carvedilol in an extension study.
# The analysis presented below corresponds to the data set on which the DSMB made the recommendation to terminate the trials. Included in this intent-to-treat analysis are all patients enrolled in the U.S. trials as of Jan. 20, 1995; 624 receiving carvedilol and 356 placebo.
# patients with CHF [2] = conditions: treatment of CHF; cited from earlier work
# [3] = Class III-IV CHF, listed as CRV
compound,measurement,setting,value
COc1ccccc1OCCNCC(O)COc1cccc2[nH]c3ccccc3c12 (stereo not shown) [Carvedilol],Mortality,patients with CHF [1]; Class II CHF,(1.9%)
same,Mortality (deaths/patients),patients with CHF [1]; Class II CHF,7/361
same,"Risk Reduction, mortality",patients with CHF [1]; Class II CHF,68%
same,"Risk Reduction, mortality","patients with CHF [1]; Class II CHF, listed as CRV",68%
same,Mortality,"patients with CHF [1]; Class II CHF, listed as CRV",1.9%
same,Mortality,patients with CHF [1]; Class III-IV CHF,(4.2%)
same,Mortality (deaths/patients),patients with CHF [1]; Class III-IV CHF,11/263
same,"Risk Reduction, mortality",patients with CHF [1]; Class III-IV CHF,66%
same,"Risk Reduction, mortality",patients with CHF [1]; [3],67%
same,Mortality,patients with CHF [1]; [3],4.2%
same,Mortality,patients with CHF [1]; Ischemic Etiology,(3.2%)
same,Mortality (deaths/patients),patients with CHF [1]; Ischemic Etiology,10/311
same,"Risk Reduction, mortality",patients with CHF [1]; Ischemic Etiology,67%
same,"Risk Reduction, mortality","patients with CHF [1]; Ischemic Etiology, listed as CRV",67%
same,Mortality,patients with CHF [1]; Non-Ischemic Etiology,(2.5%)
same,Mortality (deaths/patients),patients with CHF [1]; Non-Ischemic Etiology,8/313
same,"Risk Reduction, mortality",patients with CHF [1]; Non-Ischemic Etiology,67%
same,"Risk Reduction, mortality","patients with CHF [1]; Non-Ischemic Etiology, listed as CRV",67%
same,All Cause Mortality,"patients with CHF [1]; all patients, intent-to-treat",(2.9%)
same,All Cause Mortality (deaths/patients),"patients with CHF [1]; all patients, intent-to-treat, added to digoxin, diuretics and ACE inhibitor, 6.25 to 50 mg b.i.d.",18/624
same,All Cause Mortality,"patients with CHF [1]; all patients, intent-to-treat, listed as CRV",2.9%
same,"Risk Reduction, all-cause mortality",patients with CHF [1]; all patients,67%
same,"Risk Reduction, all-cause mortality","patients with CHF [1]; all patients, listed as CRV",67%
CC(C)NCC(O)COc1ccc(COCCOC(C)C)cc1 (stereo not shown) [bisoprolol],Difference in mortality between drug-treated patients and placebo-treated patients,patients with CHF [2],no difference in mortality
COCCc1ccc(OCC(O)CNC(C)C)cc1 (stereo not shown) [metoprolol],Difference in mortality between drug-treated patients and placebo-treated patients,patients with CHF [2],no difference in mortality
